# Measurements: patent US11602546B2, “Combination inhibiting MEIS proteins” (YEDÍTEPE ÜNÍVERSÍTESÍ, priority 2016, dated 2023)
# Experiments:
# [1] = system: L929 murine fibroblastic cell line; assay: cytotoxic analyses, WST1, L929 cell line; format: cell-based; conditions: L929 cells, 0, 1, 1 and 10 μM doses, 4 days
# Experimental: 6—Cytotoxic Analyses of MEIS Inhibitors
# L929 murine fibroblastic cell line was used for cytotoxic analyses of the MEIS inhibitors. The cells were seeded into a 96-well plate (Corning, 3799) at 2000 cells per well. The next day after seeding, the cells were treated by different doses by means of gradient concentration method using final concentrations of 0.1 μM, 1 μM, 10 μM with Meis1 inhibitor 1 (MEISi-1) and Meis1 inhibitor 2 (MEISi-2) mixed into each well in maximum 200 μl DMEM medium, and they were incubated in 5% CO2 and normal O2 level at 37° C. 4 days after the incubation, 10 μl WST1 cell proliferation solution (Boster, AR1159) was added, and after incubation of 4 hours, absorbance measurement was carried out at 450 nm by Thermo Lab system Multiskan Spektrum (ER-G).
# [2] = dose-dependent in vitro experiments (effective dose); format: cell-based
# Experimental: The effective dose was determined to be 1 μM by means of the dose-dependent in vitro experiments.
# [3] = system: Lin− cells obtained from the bone marrow / HSCs; assay: ex vivo mouse HSC proliferation (Lin− bone marrow cells, flow cytometry); format: cell-based; conditions: dose dependent
# Experimental: 4—Determining the effect of MEIS inhibitor on ex vivo HSC proliferation
# Bone marrow isolation from mouse and HSC purification were performed. For this, following euthanasia of 8-12 week old mice with isoflurane, bone marrow cells were obtained from femur and tibia bones. Briefly, Lin−, Sca1+, c-Kit+, CD34low cells (long term HSCs) were obtained by being stained with cell line cocktail with biotin (anti-CD3, anti-CDS, anti-B220, anti-Mac-1, anti-Gr1, anti-Ter119; Stem Cell Technologies), and that was followed by streptavidin-PE/Cy5.5, anti-Sca-1-FITC, anti-KIT-APC, and anti-CD34-PE staining. HSC medium known as SCF medium was used in the culture of the isolated bone marrow cells. […]
# HSC frequency and number: The Lin− cells obtained from the bone marrow were treated in the cell culture with MEIS inhibitors or DMSO for 10 days, and subsequently the number of hematopoietic cells (FIG. 4) and the percentage of HSCs (FIGS. 5 and 6) were determined. In order to determine the number of HSCs, the concerned surface antigens (Lin−, Sca1+, c-Kit+, CD34−) were stained with fluorochrome conjugated antibody as in the previous studies and then analyzed with flow cytometry (ER: C).
# [4] = system: HSCs in mouse bone marrow and blood; assay: in vivo proliferation of HSCs with MEIS inhibitors; conditions: 0.5 mg/kg to 10 mg/kg, 10 days after administration
# Experimental: 5—In Vivo Proliferation of HSCs with MEIS Inhibitors
# As an alternative to ex vivo proliferation of HSCs by using small molecules, it was shown that application of MEIS inhibitors directly for in vivo HSC proliferation is also possible. The injected MEIS inhibitors were administered intraperitoneally in the range of 0.5 mg/kg to 10 mg/kg. In order to ensure effective incubation, the inhibitors were administered to the mice in 3 different doses; and 10 days after administration, the amount of the HSCs obtained from the bone marrow of the mice was determined (FIG. 9) (ER: F).
# [5] = system: p21, Hif-1alpha (Hif-1α), Hif-2alpha (Hif-2α) genes in the Meis1 pathway; assay: real-time RT-PCR of Meis1 pathway genes in HSCs; format: cell-based; conditions: HSCs, 0.1, 1 and 10 μM, 3 days, vs DMSO
# Experimental: 3—Testing MEIS Inhibitors by Real-Time RT-PCR
# HSCs were prepared for each inhibitor (3 replicates in 6 wells) and cell series containing DMSO were used as control group. For each potential small molecule, assays were conducted at concentrations of 0.1, 1 and 10 μM; and the cells were trypsinized and collected after 3 days and were stored in trizol until RNA isolation was carried out. RNA isolation was performed by using Qiagen in RNeasy mini kit and protocol. cDNA was synthesized from 2 μg RNA by using Invitrogen in Superscript II RT system. Assays were conducted in BioRad CFX 96 Real Time PCR device by using SyberGreen (AppliedBiosystems). GAPDH was used as the control gene and was used for normalizing gene expression by ddCT method. Levels of the p21, Hif-1alpha (Hif-1α), Hif-2alpha (Hif-2α) gene expressions, which are known to be activated by Meis1, were determined and were controlled by DMSO control group (FIG. 3) (ER: B).
# [6] = system: human HSCs from bone marrow or umbilical cord blood; assay: human HSC expansion ex vivo; format: cell-based; conditions: human hematopoietic cell culture, in comparison to DMSO control group
# Experimental: Human HSC Expansion: The cells obtained from bone marrow or umbilical cord blood were separated by Percoll and mononuclear cells were obtained. They were transferred to the tubes containing HSC medium. HSC medium known as SCF medium was used in the culture of the isolated bone marrow and umbilical cord blood HSCs. […] Following HSC purification, HSCs were seeded into a 96-well plate (Corning, 3799) at 200-300 HSCs per well; and upon adding maximum 200 μl of MEIS inhibitors mixed in SCF medium into each cell, they were incubated in 5% CO2 and normal O2 level at 37° C. for 7-10 days. Then, the number and percentage (frequency) of the HSCs and of the other hematopoietic progenitor cells were determined. The results were compared with the control group treated with DMSO (ER: E).
# [7] = system: p21-Luc MEIS reporter (Meis1); assay: in vitro p21 luciferase reporter assay in COS cells; format: cell-based; conditions: COS cells, 0.1, 1 and 10 μM, 48 hours
# Experimental: 2—Determining Meis1 Inhibitors by In Vitro Luciferase Reporter Assay
# MEIS inhibitors were tested by conducting the luciferase reporter assay. It was observed that MEIS protein activated the luciferase reporters containing increasing doses of p21 promoters. pGL2 vectors comprising p21 gene promoter, which is activated by Meis1, were used in the luciferase assays. Therefore, 0.8 μg p21-pGL2, 400 ng Meis1 expression vector pCMVSPORT6-Meis1 (Open BioSystems) and 0.2 μg p CMV-LacZ (internal control) vector were transfected together to the COS cells. 4 hours later, the cells were treated with prototype MEIS inhibitors (at 0.1, 1 and 10 μM concentrations). 6-well plates and lipofectamine were used for transfection. 48 hours later, the cells were lysed, samples were collected and luciferase activity was determined. Reporter system of Promega (Promega Dual-Glo® Luciferase Assay System) was used for this. Luciferase measurements were normalized according to β-gal measurements (measurements were made at 420 nm). Thermo Lab system Lumino scan Ascent device was used for the luciferase measurements. As a result of these experimental studies, the in silico study, which targeted MEIS homeodomain and was conducted in comparison to the other TALE homeodomain, enabled to determine MEIS-specific hits (Experimental Results (ER): ER-A).
SMILES,cytotoxicity [1],effective dose [2],increase in the number of HSCs [3],HSC number in mouse bone marrow (LSKCD34low cells) [4],HSC number in the blood (LSKCD150+CD48− cells) [4],expression of Hif-1alpha (Hif-1α) gene [5],expression of Hif-2alpha (Hif-2α) gene [5],expression of p21 gene [5],ALDHBr HSC number increase [6],CD34+ HSC number increase [6],CD34+CD133 HSC number increase [6],CD133+ HSC number increase [6],inhibition of p21-Luc MEIS reporter (luciferase activity) [7]
"Cc1cccc(NC(=O)c2ccc(OCC(=O)NCc3ccccc3)cc2)c1C [MEISi-1, 4-[2-(benzylamino)-2-oxoethoxy]-N-(2,3-dimethylphenyl) benzamide]",not cytotoxic,1 µM,up to 10 times,successfully increased HSC number,successfully increased HSC number,reduce expression,reduce expression,reduce expression,2 times,2 times,2 times,2 times,inhibit p21-Luc MEIS reporter in a dose-dependent manner
"O=C1C=Cc2ccccc2/C1=C/NNC(=O)c1ccc(O)cc1 [MEISi-2, 4-hydroxy-N′-[(Z)-(2-oxonaphthalen-1-ylidene)methyl] benzohydrazide]",not cytotoxic,1 µM,up to 3 times,successfully increased HSC number,successfully increased HSC number,reduce expression,reduce expression,reduce expression,2 times,2 times,2 times,2 times,inhibit p21-Luc MEIS reporter in a dose-dependent manner
